From patent publication US20250313575A1, “MACROCYCLES AS LRRK2 INHIBITORS, PHARMACEUTICAL COMPOSITIONS, AND USES THEREOF” (Merck Sharp & Dohme LLC, priority 2022, published 2025)

biological target: GST-tagged truncated human mutant G2019S LRRK2 (Homo sapiens (Human), UniProt Q5S007, G2019S); assay: LRRK2 G2019S Km ATP LanthaScreen assay; format: biochemical; conditions: G2019S LRRK2, 134 μM ATP (Km ATP), LRRKtide substrate
Procedure, shortened: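 TR-FRET assay with GST-tagged truncated human G2019S LRRK2 (1.25 nM), preincubated with compound 15 min, then reacted with fluorescein-LRRKtide and 134 μM ATP (Km) in Tris pH 8.5 buffer, 90 min, ambient temperature. Tb-anti-phospho-LRRKtide detection, 520/495 nm ratio; IC50 by 4-parameter logistic fit, top concentration 9.99 μM in DMSO, 10 points.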

GST-tagged truncated human mutant G2019S LRRK2, sequence (Q5S007 970-2527 G2019S): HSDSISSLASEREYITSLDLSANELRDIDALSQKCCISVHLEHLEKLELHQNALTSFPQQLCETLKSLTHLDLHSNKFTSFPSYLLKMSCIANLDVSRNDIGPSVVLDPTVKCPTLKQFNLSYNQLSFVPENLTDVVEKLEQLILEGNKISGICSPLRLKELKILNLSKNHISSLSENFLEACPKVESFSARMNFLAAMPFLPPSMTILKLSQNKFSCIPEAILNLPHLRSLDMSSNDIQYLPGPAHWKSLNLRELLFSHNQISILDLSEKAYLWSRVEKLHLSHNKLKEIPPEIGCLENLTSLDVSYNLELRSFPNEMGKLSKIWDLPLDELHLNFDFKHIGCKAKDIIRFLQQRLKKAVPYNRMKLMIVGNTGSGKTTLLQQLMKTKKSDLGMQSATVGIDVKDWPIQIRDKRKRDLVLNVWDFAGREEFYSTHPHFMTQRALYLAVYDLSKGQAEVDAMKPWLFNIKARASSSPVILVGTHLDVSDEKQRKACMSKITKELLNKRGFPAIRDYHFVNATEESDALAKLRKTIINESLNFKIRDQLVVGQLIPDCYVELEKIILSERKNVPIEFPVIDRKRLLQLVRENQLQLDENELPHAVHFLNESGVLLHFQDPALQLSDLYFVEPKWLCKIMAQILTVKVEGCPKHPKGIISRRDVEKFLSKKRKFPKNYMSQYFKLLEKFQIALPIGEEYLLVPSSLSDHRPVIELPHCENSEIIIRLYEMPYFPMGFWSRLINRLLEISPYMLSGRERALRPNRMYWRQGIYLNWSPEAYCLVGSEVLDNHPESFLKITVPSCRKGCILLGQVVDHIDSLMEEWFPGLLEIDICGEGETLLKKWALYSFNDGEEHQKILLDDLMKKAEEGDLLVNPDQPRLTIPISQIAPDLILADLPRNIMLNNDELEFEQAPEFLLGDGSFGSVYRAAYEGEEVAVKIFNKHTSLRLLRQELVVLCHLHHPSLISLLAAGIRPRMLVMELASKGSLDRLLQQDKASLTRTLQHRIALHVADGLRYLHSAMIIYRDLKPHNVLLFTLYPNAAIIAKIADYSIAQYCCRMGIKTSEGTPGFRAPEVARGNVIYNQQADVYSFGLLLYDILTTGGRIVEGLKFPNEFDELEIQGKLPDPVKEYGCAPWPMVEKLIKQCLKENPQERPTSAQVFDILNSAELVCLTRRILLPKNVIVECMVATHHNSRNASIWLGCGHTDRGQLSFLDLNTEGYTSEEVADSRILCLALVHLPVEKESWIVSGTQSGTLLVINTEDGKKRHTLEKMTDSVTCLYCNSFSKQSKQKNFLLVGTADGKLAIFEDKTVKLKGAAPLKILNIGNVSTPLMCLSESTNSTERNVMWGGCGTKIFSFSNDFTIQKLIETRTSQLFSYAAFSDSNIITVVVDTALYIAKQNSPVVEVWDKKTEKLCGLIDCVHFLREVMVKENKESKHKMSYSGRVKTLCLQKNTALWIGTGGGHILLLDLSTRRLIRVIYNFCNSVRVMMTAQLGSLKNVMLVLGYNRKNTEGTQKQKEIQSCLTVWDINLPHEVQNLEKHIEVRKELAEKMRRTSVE

With `Cc1nn(C2CCC2)c2c1OC[C@@H]1COCC[C@H]1Nc1nc(ncc1C(F)(F)F)N2` [Ex-2.33, (4aR,16aS)- or (4aS,16aR)-12-cyclobutyl-14-methyl-7-(trifluoromethyl)-3,4,4a,5,11,12,16,16a-octahydro-1H-6,10-(azeno)pyrano[4,3-k]pyrazolo[4,3-b][1]oxa[4,6,10]triazacyclotridecine] as the molecule, how does the “LRRK2 pIC50” value read?
Its value is 9.11.

For `Cc1nn(C2CCC2)c2c1OC[C@@H]1COCC[C@H]1Nc1nc(ncc1C(F)(F)F)N2` [Ex-2.34, (4aR,16aS)- or (4aS,16aR)-12-cyclobutyl-14-methyl-7-(trifluoromethyl)-3,4,4a,5,11,12,16,16a-octahydro-1H-6,10-(azeno)pyrano[4,3-k]pyrazolo[4,3-b][1]oxa[4,6,10]triazacyclotridecine], which “LRRK2 pIC50” value is on record?
Its value is 8.00.

For `Cc1nn(C2CCC2)c2c1OCC1COCCC1Nc1nc(ncc1C(F)(F)F)N2` [Ex-2.35, (4aR,16aR)- and (4aS,16aS)-12-cyclobutyl-14-methyl-7-(trifluoromethyl)-3,4,4a,5,11,12,16,16a-octahydro-1H-6,10-(azeno)pyrano[4,3-k]pyrazolo[4,3-b][1]oxa[4,6,10]triazacyclotridecine], which “LRRK2 pIC50” value is on record?
Its value is 8.56.

For `COC1CCC1n1nc(C)c2c1Nc1ncc(C(F)(F)F)c(n1)NC1COCC1CO2` [Ex-2.36, (10aS,13aS)-3-((1R,2R)-(10aS,13aS)-3-((1S,2R)-(10aS,13aS)-3-((1R,2S)-(10aS,13aS)-3-((1R,2R)-(10aR,13aR)-3-((1S,2R)-(10aR,13aR)-3-((1R,2S)-2-methoxycyclobutyl)-1-methyl-8-(trifluoromethyl)-3,4,10a,11,13a,14-hexahydro-10H,13H-5,9-(azeno)furo[3,4-k]pyrazolo[4,3-b][1]oxa[4,6,10]triazacyclotridecine], which “LRRK2 pIC50” value is on record?
The value was 6.31.

Which “LRRK2 pIC50” value does the source give for `COC1CCC1n1nc(C)c2c1Nc1ncc(C(F)(F)F)c(n1)NC1COCC1CO2` [Ex-2.37, (10aS,13aS)-3-((1R,2R)-(10aS,13aS)-3-((1S,2R)-(10aS,13aS)-3-((1R,2S)-(10aS,13aS)-3-((1R,2R)-(10aR,13aR)-3-((1S,2R)-(10aR,13aR)-3-((1R,2S)-2-methoxycyclobutyl)-1-methyl-8-(trifluoromethyl)-3,4,10a,11,13a,14-hexahydro-10H,13H-5,9-(azeno)furo[3,4-k]pyrazolo[4,3-b][1]oxa[4,6,10]triazacyclotridecine] here?
The value was 6.00.

Which “LRRK2 pIC50” value does the source give for `COC1CCC1n1nc(C)c2c1Nc1ncc(C(F)(F)F)c(n1)NC1COCC1CO2` [Ex-2.38, (10aS,13aS)-3-((1R,2R)-(10aS,13aS)-3-((1S,2R)-(10aS,13aS)-3-((1R,2S)-(10aS,13aS)-3-((1R,2R)-(10aR,13aR)-3-((1S,2R)-(10aR,13aR)-3-((1R,2S)-2-methoxycyclobutyl)-1-methyl-8-(trifluoromethyl)-3,4,10a,11,13a,14-hexahydro-10H,13H-5,9-(azeno)furo[3,4-k]pyrazolo[4,3-b][1]oxa[4,6,10]triazacyclotridecine] here?
The value was 6.13.

How did the “LRRK2 pIC50” value turn out when `COC1CCC1n1nc(C)c2c1Nc1ncc(C(F)(F)F)c(n1)NC1COCC1CO2` [Ex-2.39, (10aS,13aS)-3-((1R,2R)-(10aS,13aS)-3-((1S,2R)-(10aS,13aS)-3-((1R,2S)-(10aS,13aS)-3-((1R,2R)-(10aR,13aR)-3-((1S,2R)-(10aR,13aR)-3-((1R,2S)-2-methoxycyclobutyl)-1-methyl-8-(trifluoromethyl)-3,4,10a,11,13a,14-hexahydro-10H,13H-5,9-(azeno)furo[3,4-k]pyrazolo[4,3-b][1]oxa[4,6,10]triazacyclotridecine] was run?
Its value is 6.32.

Which “LRRK2 pIC50” value does the source give for `COC1CCC1n1nc(C)c2c1Nc1ncc(C(F)(F)F)c(n1)NC1COCC1CO2` [Ex-2.40, (10aS,13aS)-3-((1R,2R)-(10aS,13aS)-3-((1S,2R)-(10aS,13aS)-3-((1R,2S)-(10aS,13aS)-3-((1R,2R)-(10aR,13aR)-3-((1S,2R)-(10aR,13aR)-3-((1R,2S)-2-methoxycyclobutyl)-1-methyl-8-(trifluoromethyl)-3,4,10a,11,13a,14-hexahydro-10H,13H-5,9-(azeno)furo[3,4-k]pyrazolo[4,3-b][1]oxa[4,6,10]triazacyclotridecine] here?
The value was 8.96.

`COC1CCC1n1nc(C)c2c1Nc1ncc(C(F)(F)F)c(n1)NC1COCC1CO2` [Ex-2.41, (10aS,13aS)-3-((1R,2R)-(10aS,13aS)-3-((1S,2R)-(10aS,13aS)-3-((1R,2S)-(10aS,13aS)-3-((1R,2R)-(10aR,13aR)-3-((1S,2R)-(10aR,13aR)-3-((1R,2S)-2-methoxycyclobutyl)-1-methyl-8-(trifluoromethyl)-3,4,10a,11,13a,14-hexahydro-10H,13H-5,9-(azeno)furo[3,4-k]pyrazolo[4,3-b][1]oxa[4,6,10]triazacyclotridecine] was tested. Which “LRRK2 pIC50” value did it give?
The value was 6.51.

With `Cc1nn(C(C)C)c2c1OC[C@@H]1COC[C@H]1Nc1nc(ncc1C(F)(F)F)N2` [Ex-2.42, (10aS,13aS)-3-isopropyl-1-methyl-8-(trifluoromethyl)-3,4,10a,11,13a,14-hexahydro-10H,13H-5,9-(azeno)furo[3,4-k]pyrazolo[4,3-b][1]oxa[4,6,10]triazacyclotridecine] as the molecule, how does the “LRRK2 pIC50” value read?
The value was 9.93.

How did the “LRRK2 pIC50” value turn out when `CC(C)n1nc(C(C)(C)C#N)c2c1Nc1ncc(C(F)(F)F)c(n1)N[C@@H]1COC[C@H]1CO2` [Ex-2.43, 2-((10aS,13aS)-3-isopropyl-8-(trifluoromethyl)-3,4,10a,11,13a,14-hexahydro-10H,13H-5,9-(azeno)furo[3,4-k]pyrazolo[4,3-b][1]oxa[4,6,10]triazacyclotridecin-1-yl)-2-methylpropanenitrile] was run?
The value was >10.09.

How did the “LRRK2 pIC50” value turn out when `CCOC(=O)[C@@H]1C[C@@H]1c1nn(C(C)C)c2c1OC[C@@H]1COC[C@H]1Nc1nc(ncc1C(F)(F)F)N2` [Ex-2.46, ethyl (1R,2S)- or ethyl (1S,2R)-2-((10aS,13aS)-3-isopropyl-8-(trifluoromethyl)-3,4,10a,11,13a,14-hexahydro-10H,13H-5,9-(azeno)furo[3,4-k]pyrazolo[4,3-b][1]oxa[4,6,10]triazacyclotridecin-1-yl)cyclopropane-1-carboxylate] was run?
Its value is 6.66.

`CCOC(=O)[C@@H]1C[C@@H]1c1nn(C(C)C)c2c1OC[C@@H]1COC[C@H]1Nc1nc(ncc1C(F)(F)F)N2` [Ex-2.47, ethyl (1R,2S)- or ethyl (1S,2R)-2-((10aS,13aS)-3-isopropyl-8-(trifluoromethyl)-3,4,10a,11,13a,14-hexahydro-10H,13H-5,9-(azeno)furo[3,4-k]pyrazolo[4,3-b][1]oxa[4,6,10]triazacyclotridecin-1-yl)cyclopropane-1-carboxylate] was tested. Which “LRRK2 pIC50” value did it give?
The value was >10.09.

Which “LRRK2 pIC50” value does the source give for `CC(C)(C#N)c1nn(C2CCC2)c2c1OC[C@@H]1COC[C@H]1Nc1nc(ncc1C(F)(F)F)N2` [Ex-2.48, 2-((10aS,13aS)-3-cyclobutyl-8-(trifluoromethyl)-3,4,10a,11,13a,14-hexahydro-10H,13H-5,9-(azeno)furo[3,4-k]pyrazolo[4,3-b][1]oxa[4,6,10]triazacyclotridecin-1-yl)-2-methylpropanenitrile] here?
Its value is >10.09.

Which “LRRK2 pIC50” value does the source give for `Cc1nn(C2CCC2)c2c1OC[C@@H]1COC[C@H]1Nc1nc(ncc1Cl)N2` [Ex-2.49, (10aS,13aS)-8-chloro-3-cyclobutyl-1-methyl-3,4,10a,11,13a,14-hexahydro-10H,13H-5,9-(azeno)furo[3,4-k]pyrazolo[4,3-b][1]oxa[4,6,10]triazacyclotridecine] here?
Its value is >10.09.

`CC(C)(C#N)c1nn(C2CCC2)c2c1OC[C@H]1CC[C@@H]1Nc1nc(ncc1C(F)(F)F)N2` [Ex-2.52, 2-((10aS,12aS)- or 2-((10aR,12aR)-3-cyclobutyl-8-(trifluoromethyl)-3,4,10,10a,11,12,12a,13-octahydro-5,9-(azeno)cyclobuta[k]pyrazolo[4,3-b][1]oxa[4,6,10]triazacyclotridecin-1-yl)-2-methylpropanenitrile] was tested. Which “LRRK2 pIC50” value did it give?
The value was 5.96.

With `CC(C)(C#N)c1nn(C2CCC2)c2c1OC[C@H]1CC[C@@H]1Nc1nc(ncc1C(F)(F)F)N2` [Ex-2.53, 2-((10aS,12aS)- or 2-((10aR,12aR)-3-cyclobutyl-8-(trifluoromethyl)-3,4,10,10a,11,12,12a,13-octahydro-5,9-(azeno)cyclobuta[k]pyrazolo[4,3-b][1]oxa[4,6,10]triazacyclotridecin-1-yl)-2-methylpropanenitrile] as the molecule, how does the “LRRK2 pIC50” value read?
The value was 9.64.

Which “LRRK2 pIC50” value does the source give for `Cc1nn(C(C)C)c2c1OC[C@@H]1COC[C@H]1Nc1nc(ncc1Cl)N2` [Ex-2.54, (10aS,13aS)-8-chloro-3-isopropyl-1-methyl-3,4,10a, 11,13a,14--hexahydro-10H,13H-5,9-(azeno)furo[3,4-k]pyrazolo[4,3-b][1]oxa[4,6,10]triazacyclotridecine] here?
The value was 8.57.

Which “LRRK2 pIC50” value does the source give for `Cc1nn(C2CC2)c2c1OC[C@@H]1COC[C@H]1Nc1nc(ncc1Cl)N2` [Ex-2.55, (10aS,13aS)-8-chloro-3-cyclopropyl-1-methyl-3,4,10a,11,13a,14-hexahydro-10H,13H-5,9-(azeno)furo[3,4-k]pyrazolo[4,3-b][1]oxa[4,6,10]triazacyclotridecine] here?
The value was 8.94.

For `Cc1nn(C2CCC2)c2c1OC[C@@H]1CC[C@@H]1Nc1nc(ncc1Cl)N2` [Ex-2.56, (10aS,12aR)-8-chloro-3-cyclobutyl-1-methyl-3,4,10,10a,11,12,12a,13-octahydro-5,9-(azeno)cyclobuta[k]pyrazolo[4,3-b][1]oxa[4,6,10]triazacyclotridecine], which “LRRK2 pIC50” value is on record?
Its value is >10.09.

How did the “LRRK2 pIC50” value turn out when `CC(C)n1nc(C2CC2)c2c1Nc1ncc(C(F)(F)F)c(n1)N[C@@H]1COC[C@H]1CO2` [Ex-2.57, (10aS,13aS)-1-cyclopropyl-3-isopropyl-8-(trifluoromethyl)-3,4,10a,11,13a,14-hexahydro-10H,13H-5,9-(azeno)furo[3,4-k]pyrazolo[4,3-b][1]oxa[4,6,10]triazacyclotridecine] was run?
The value was 9.98.
